In brackets after ≈: the same amount, converted by molar mass.
Experiments:
[1] = tested on: Influenza B virus; test: Effective dose required to reduce virus induced cytopathogenicity by Influenza B(Fu 207) was determined; type: functional, organism-based
[2] = tested on: Vesicular stomatitis virus; test: Effective dose required for plaque reduction in vesicular stomatitis virus (VSV) was determined; type: functional, organism-based
[3] = tested on: Human betaherpesvirus 5; test: Effective dose required for plaque reduction in human cytomegalovirus (HCMV) was determined; type: functional, organism-based
[4] = tested on: Influenza A virus; test: Effective dose required to reduce virus induced cytopathogenicity by Influenza A(H1N1,Fu 88) was determined; type: functional, organism-based
[5] = tested on: Influenza B virus; test: Effective dose required to reduce virus induced cytopathogenicity by Influenza B(singapore) was determined; type: functional, organism-based
[6] = Evaluated for time-dependent and irreversible inhibitor of bovine S-adenosyl-L-homocysteine; set-up: species or system Bos taurus
[7] = tested on: Influenza B virus; test: Effective dose required to reduce virus induced cytopathogenicity by Influenza B (Fu 207) was determined; type: functional, organism-based

SMILES | EC50 [1] [µg/mL] | EC50 [2] [µg/mL] | EC50 [3] [µg/mL] | EC50 [4] [µg/mL] | EC50 [5] [µg/mL] | Ki [6] [nM] | EC50 [7] [µg/mL]
N#C[C@H]1OC(n2cnc3c(N)ncnc32)[C@H](O)[C@@H]1O (some centres not stated) | 10 (≈ 38.1 µM) | 1.2 (≈ 4.58 µM) | 1.4 (≈ 5.34 µM) |  |  |  | 
C#C[C@H]1OC(n2cnc3c(N)ncnc32)[C@H](O)[C@@H]1O (some centres not stated) | 1.8 (≈ 6.89 µM) | 0.14 (≈ 0.536 µM) | 8.2 (≈ 31.4 µM) | 0.38 (≈ 1.45 µM) | 0.9 (≈ 3.45 µM) | 173 | 
Nc1ncnc2c1ncn2C1O[C@H](C=C(Br)Br)[C@@H](O)[C@H]1O (some centres not stated) |  | > 10 | > 10 |  |  |  | 32 (≈ 76 µM)
Nc1ncnc2c1ncn2[C@@H]1C=C(CO)[C@@H](O)[C@H]1O [NEOPLANOCIN A] | > 20 | 0.38 (≈ 1.44 µM) | 0.2 (≈ 0.76 µM) | > 20 | > 20 |  | 
NC(=O)c1ncn([C@@H]2O[C@H](CO)[C@@H](O)[C@H]2O)n1 [RIBAVIRIN] | 36.9 (≈ 151 µM) | > 10 | > 10 | 19.6 (≈ 80.3 µM) | 6.7 (≈ 27.4 µM) |  | 
